ChEMBL document CHEMBL3044976, “Screening and evaluation of rat kidney aldose reductase inhibitory activity of some pyridazine derivatives” (Med Chem Res, 2006)

Molecular target: Aldo-keto reductase family 1 member B1 (Rattus norvegicus) (UniProt P07943)
Assay: Inhibition of Rattus norvegicus albino (rat) kidney aldose reductase using DL-glyceraldehyde as substrate assessed as decrease in NADPH concentRattus norvegicus (rat) ion at 10^-4 M after 5 min by spectrophotometrically

| SMILES | inhibition [%] |
| --- | --- |
| O=C(CCc1cc(-c2ccc(Cl)cc2)n(-c2ccc(Cl)nn2)n1)N1CCCCC1 | 0 |
| Cc1cc(C)n(-c2ccc(=O)n(CC(=O)N3CCN(c4ccccc4F)CC3)n2)n1 | 0 |
| Cc1cc(-c2ccccc2)nn1-c1ccc(=O)n(CC(=O)N2CCN(c3ccc(F)cc3)CC2)n1 | 0 |
| O=C(CCc1cc(-c2ccc(Cl)cc2)n(-c2ccc(Cl)nn2)n1)NCCc1ccccc1 | 0 |
| Cc1cc(-c2ccccc2)nn1-c1ccc(=O)n(CC(=O)N2CCN(c3ccccc3F)CC2)n1 | 1.85 |
| Cc1cc(-c2ccccc2)nn1-c1ccc(=O)n(CC(=O)O)n1 | 0.76 |
| CCOC(=O)Cn1nc(-n2nc(C)cc2C)ccc1=O | 0 |
| Cc1cc(C)n(-c2ccc(=O)n(CC(=O)O)n2)n1 | 7.73 |
| Cc1cc(-c2ccccc2)nn1-c1ccc(=O)n(CC(=O)NCCc2ccccc2)n1 | 0 |
| O=C(O)CCc1cc(-c2ccc(Cl)cc2)n(-c2ccc(Cl)nn2)n1 | 0.76 |
| Cc1cc(C)n(-c2ccc(=O)n(CC(=O)N3CCN(c4ccc(F)cc4)CC3)n2)n1 | 1.85 |
| CCOC(=O)Cn1nc(-n2nc(-c3ccccc3)cc2C)ccc1=O | 0 |
| O=C(CCc1cc(-c2ccc(Cl)cc2)n(-c2ccc(Cl)nn2)n1)Nc1ccc(Cl)cc1 | 0 |

Now from value to compound:

| inhibition [%] | SMILES |
| --- | --- |
| 3.37 | Cc1cc(-c2ccccc2)nn1-c1ccc(=O)n(CC(=O)Nc2cccnc2)n1 |
| 0 | Cc1cc(C)n(-c2ccc(=O)n(CC(=O)Nc3cccnc3)n2)n1 |
| 0 | Cc1cc(-c2ccccc2)nn1-c1ccc(=O)n(CC(=O)Nc2ccc(Cl)cc2)n1 |
| 0 | Cc1nn(-c2ccc(=O)n(CC(=O)NCCc3ccccc3)n2)c(C)c1Cl |
| 0 | CCOC(=O)Cn1nc(-n2nc(C)c(Cl)c2C)ccc1=O |
| 0 | Cc1cc(C)n(-c2ccc(=O)n(CC(=O)Nc3ccc(Cl)cc3)n2)n1 |
| 0 | Cc1nn(-c2ccc(=O)n(CC(=O)Nc3ccc(Cl)cc3)n2)c(C)c1Cl |
| 0 | Cc1nn(-c2ccc(=O)n(CC(=O)N3CCCCC3)n2)c(C)c1Cl |
| 0.98 | Cc1nn(-c2ccc(=O)n(CC(=O)O)n2)c(C)c1Cl |
| 0 | Cc1nn(-c2ccc(=O)n(CC(=O)Nc3ccc(F)cc3)n2)c(C)c1Cl |
| 0 | Cc1cc(C)n(-c2ccc(=O)n(CC(=O)NCCc3ccccc3)n2)n1 |
